Measured values taken from patent US8993718B2, “Methods and compositions for detecting and modulating O-glycosylation” (President and Fellows of Harvard College, priority 2007, dated 2015).
Non-standard residues stand in square brackets, D forms with d. Primed or numbered codes have the meaning given here. No end group written: not given here. *: point of attachment. FITC = O=C1OC2(c3ccc(O)cc3Oc3cc(O)ccc32)c2ccc(NC(=S)*)cc21; Aha′ = not defined here

target: T1, sOGT (Homo sapiens, UniProt O15294); assay: High-throughput kinetic protease-protection screen with polypeptide 4.10; format: biochemical; details: 25 μg/mL (~70 μM); hit = <70% activity in one duplicate and <80% in the second
T1 sequence (O15294 1-665 isoform O15294-4): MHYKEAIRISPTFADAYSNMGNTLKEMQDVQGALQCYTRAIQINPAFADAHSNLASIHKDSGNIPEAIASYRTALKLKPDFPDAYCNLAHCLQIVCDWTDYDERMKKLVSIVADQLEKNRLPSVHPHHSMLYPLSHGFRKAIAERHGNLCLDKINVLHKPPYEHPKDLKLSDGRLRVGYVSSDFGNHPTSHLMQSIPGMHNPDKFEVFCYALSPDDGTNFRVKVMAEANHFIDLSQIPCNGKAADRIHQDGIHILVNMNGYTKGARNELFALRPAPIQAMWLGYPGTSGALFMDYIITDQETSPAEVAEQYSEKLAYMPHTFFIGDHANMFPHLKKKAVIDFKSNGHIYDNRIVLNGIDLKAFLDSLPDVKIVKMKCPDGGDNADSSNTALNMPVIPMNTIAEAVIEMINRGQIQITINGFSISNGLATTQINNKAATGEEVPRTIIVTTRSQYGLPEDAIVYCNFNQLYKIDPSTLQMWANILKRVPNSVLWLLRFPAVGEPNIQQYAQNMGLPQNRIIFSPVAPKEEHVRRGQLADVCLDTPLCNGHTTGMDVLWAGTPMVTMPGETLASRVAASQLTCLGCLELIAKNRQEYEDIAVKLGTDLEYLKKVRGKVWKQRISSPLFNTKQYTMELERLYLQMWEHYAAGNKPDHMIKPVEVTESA
Text: With the final assay conditions established, 124,226 compounds were screened in duplicate at the ICCB (Harvard University, Boston, Mass.) over two days; the highest throughput of any assay performed at the ICCB screening facility. Small molecule libraries from several commercial vendors were screened as well as known bioactive compounds, natural product extracts, and molecules made using diversity oriented synthetic approaches. Included in this set were 52,026 of the 64,416 compounds screened using a donor displacement method such as that described in PCT application PCT/US2007/008806, which was filed Apr. 11, 2007. The vast majority compounds screened were small molecules (average MW ˜350) that were optimized to have favorable physico-chemical properties such as solubility, decreased toxicity, and increased stability. All of the commercial compounds at the ICCB are plated at a stock concentration of 5 mg/mL, which, given a 20 μL reaction volume, corresponds to a 25 μg/mL inhibitor concentration in each well. The format of most compound plates at the ICCB has the last two columns of each 384-well plate empty. This allowed each assay plate to have column of negative controls (run without inhibitor) and column of positive controls (run without sOGT), which allowed a Z′ to be calculated for each plate. These values typically ranged from 0.7-0.8.
Data workup began by calculating the average positive and negative control values independently for both duplicates of each plate. Using the linear relationship between percent glycosylation and fluorescence shown above (FIG. 7), the percent glycosylation was calculated for each well, with 0% corresponding to the average value of the positive controls and 100% corresponding to the average value of the negative controls. In actuality the range is roughly […] glycosylated polypeptide since the reaction was not allowed to proceed to completion. However, this simplification was employed to facilitate the comparison of different sets of plates. There were remarkably few compounds that reproducibly appeared to inhibit OGT, which enabled hits to be selected using a very high cutoff. Compounds with <70% activity in one duplicate and <80% activity in the second duplicate were scored as hits. Even using this lax criterion, the total unfiltered hit set only numbered 84, corresponding to a hit rate of 0.065%.
384-well plates (Costar #3710) were filled using a liquid handling robot with 10 μL of a mixture of 8 μM polypeptide 4.10, 40 μM UDP-GlcNAc, and buffer (50 mM Tris, 20 mM CaCl2, 0.05% Tween-20, 0.05% NP-40, pH=7.8, 500 μM tris(hydroxypropyl)phosphine). Compound libraries were then transferred to the assay plates using a 100 nL pin array and 10 μL of 500 nM sOGT in buffer (50 mM Tris, 20 mM CaCl2, 0.05% Tween-20, 0.05% NP-40, pH=7.8, 500 μM tris(hydroxypropyl)phosphine) was added using a liquid handling robot. The compounds were assayed at a concentration of 25 μg/mL or ˜70 μM, assuming an average compound MW of 350. After 2-3 hours, 20 μL of a 20 ng/mL proteinase K solution in buffer (50 mM Tris, 20 mM CaCl2, 0.05% Tween-20, 0.05% NP-40, pH=7.8) was added and allowed to react for 30-90 minutes. The plates were read using a Perkin-Elmer Envision® microplate reader with a 480 nm excitation filter and 530 nm emission filter.

Row | Molecule | hit in the high throughput screen
1 | Clc1cccc(C(c2nnc(-c3ccccc3)o2)N2CCN(c3ccccc3)CC2)c1 (centres unmarked) [Compound 15] | singleton hits
2 | N#CSc1cc(SC#N)c(N)nc1N [Compound 4] | hits
3 | O=C(O)[C@H](Cc1ccccc1)N1Cc2ccccc2C1=O [Compound 17] | singleton hits
4 | CSC(SC)=C(C#N)S(=O)(=O)c1ccc(Cl)cc1 [Compound 3] | hits
5 | CCn1cc(C(=O)N2CCOCC2)c(=O)c2cc(S(=O)(=O)N(C)C)ccc21 [Compound 18] | singleton hits
6 | Fc1ccc(NC2=NCCN2)cc1 [Compound 21] | singleton hits
7 | COc1cccc(/N=C\c2c[nH]c3ccccc23)c1 [Compound 5] | hits
8 | O=C1OCc2ccccc21 [Compound 16] | singleton hits
9 | Cl.Cl.N=C(N)c1cccc(NC(=O)Nc2cccc(C(=N)N)c2)c1 [Compound 10] | singleton hits
10 | Cc1cc(C)c2c(C(=O)O)cc(O)nc2c1 [Compound 6] | singleton hits
11 | O=C(/C=C/c1cccs1)Nc1scc(-c2ccccc2)c1C(=O)O [Compound 2] | singleton hits

target: T2, O-Linked N-acetylglucosaminyltransferase (OGT) (Homo sapiens, UniProt O15294); assay: Glycosylation of CK2-derived polypeptide substrates by OGT, quantified by LC/MS; format: biochemical; details: FIG. 2; natural (wild-type) sequence set as reference
T2 sequence (O15294 1-1046): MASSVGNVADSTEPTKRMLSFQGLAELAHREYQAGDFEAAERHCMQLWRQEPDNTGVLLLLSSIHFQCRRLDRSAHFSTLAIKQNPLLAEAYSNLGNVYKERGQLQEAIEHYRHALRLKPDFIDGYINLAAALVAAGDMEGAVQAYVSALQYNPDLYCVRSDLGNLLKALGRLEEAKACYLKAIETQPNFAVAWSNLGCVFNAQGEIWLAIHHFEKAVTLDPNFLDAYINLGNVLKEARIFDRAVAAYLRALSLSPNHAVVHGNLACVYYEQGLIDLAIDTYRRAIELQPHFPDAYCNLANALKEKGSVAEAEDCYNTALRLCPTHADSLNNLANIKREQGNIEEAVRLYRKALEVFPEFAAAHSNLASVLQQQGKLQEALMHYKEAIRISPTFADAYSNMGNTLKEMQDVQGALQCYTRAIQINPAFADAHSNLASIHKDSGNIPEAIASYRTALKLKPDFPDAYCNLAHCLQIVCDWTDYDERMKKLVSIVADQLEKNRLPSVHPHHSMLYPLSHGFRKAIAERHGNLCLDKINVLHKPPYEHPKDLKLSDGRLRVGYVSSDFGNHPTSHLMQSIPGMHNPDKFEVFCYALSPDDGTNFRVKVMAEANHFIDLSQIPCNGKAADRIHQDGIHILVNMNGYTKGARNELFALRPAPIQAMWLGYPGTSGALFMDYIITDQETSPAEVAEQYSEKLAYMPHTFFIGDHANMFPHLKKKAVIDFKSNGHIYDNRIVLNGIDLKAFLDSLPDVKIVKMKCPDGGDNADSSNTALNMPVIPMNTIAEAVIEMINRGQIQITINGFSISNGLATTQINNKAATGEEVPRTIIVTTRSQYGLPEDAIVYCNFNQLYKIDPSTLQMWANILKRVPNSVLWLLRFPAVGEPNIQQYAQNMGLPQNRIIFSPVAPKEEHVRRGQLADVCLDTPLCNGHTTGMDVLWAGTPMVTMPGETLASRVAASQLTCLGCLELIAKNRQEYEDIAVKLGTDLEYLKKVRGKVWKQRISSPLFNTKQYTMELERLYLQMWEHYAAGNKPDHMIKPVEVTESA
Description: To address the first requirement, a panel of polypeptides was synthesized based on a truncated version of the CKII polypeptide [CKII peptide PGGSTPVSSNAMM (SEQ ID NO:20)]. The polypeptide was modified from the native sequence in several ways. First, a fluorescein was installed on the N-terminus during synthesis. Second, a lysine was added to the C-terminus so that a second dye or quencher could be installed by reaction with the appropriate N-hydroxysuccinimidyl ester. These modifications allowed two different FRET approaches. The first approach required the installation of a coumarin derivative on the polypeptide. The second required installation of a quencher molecule, which measured total fluorescence intensity. (See Examples 2 and 3). Finally, the residues on either side of the glycosylated serine of the truncated CK2 polypeptide were changed to phenylalanine, leucine or arginine to introduce proteolytic cleavage sites for common proteases (such as trypsin, chymotrypsin and thermolysin) that were not present in the native sequence. It was reasoned that cleavage adjacent to the glycosylation site would yield the largest difference in the rate of proteolysis between glycosylated and native polypeptides. This series of polypeptides was synthesized and screened for OGT activity using by LC/MS. Peak integration (measured at 445 nm) was used to quantitative products and reactants and mass spectrometry was used to confirm peak identity. The results are presented in Table 2 and some of the peptides (peptide 4.1, 4.4, and 4.5 top to bottom) are illustrated in FIG. 2.
All polypeptides were purchased from Tufts University core facility (Boston, Mass.). The mass of crude product was verified and the polypeptides were labeled under the following conditions: Polypeptide was dissolved in 250 mM NaHCO3 buffer, pH 8.2 at a 5 mM concentration and the appropriate NHS-Ester (0.5 eq) was dissolved in DMSO (a volume of 1/10 of the aqueous buffer was used). The DMSO solution was quickly added to the peptide and the reaction proceeded at room temperature for 30 minutes. This was repeated 2 more times (four more times for polypeptide 4.10). The reaction was monitored by LC/MS. LCMS conditions for polypeptides 4.1-4.8—Agilent Eclipse 5 μm XD8-C8 column, 0→100% CH3CN+0.1% formic acid over 20 minutes. LCMS conditions for polypeptides 4.9-4.10—Agilent Eclipse 5 μm XD8-C8 column, 0→100% CH3CN+0.1% NH4OH over 20 minutes. Each polypeptide was purified by preparative HPLC. Conditions for polypeptides 4.1-4.8 were: —Phenomonex Luna C18 5 μm column, 0→100% CH3CN+0.1% TFA over 40 minutes. Conditions for polypeptides 4.9-4.10 were: —Phenomonex Luna C18 5 μm column, 0→100% CH3CN+0.1% NH4OH over 40 minutes. Products were confirmed by LC/MS. Preparative Glycosylation of Labeled Polypeptides: Purified FRET labeled polypeptides were added (20-50 μM final concentration) to assay buffer (50 mM Tris, 20 mM CaCl2, 0.05% Tween-20, 0.05% NP-40, pH=7.8), 200 μM UDP-GlcNAc, 0.05 units of alkaline phosphatase, and 5 μM OGT. Reactions were monitored using LCMS: conditions for polypeptides 4.1-4.8—Agilent Eclipse 5 μm XD8-C8 column, 10→60% CH3CN+0.1% formic acid over 20 minutes. LCMS conditions for polypeptides 4.9-4.10—Agilent Eclipse 5 μm XD8-C8 column, 10→60% CH3CN+0.1% NH4OH over 20 minutes, and when complete were purified using the same column and conditions. Polypeptides 4.1-4.8 were quantitated by absorption at 492 nm using an extinction coefficient of 86,000 cm^−1M^−1; polypeptide 4.9 was quantitated by absorption at 530 nm using an extinction coefficient of 26,000 cm^−1M^−1; polypeptide 4.10 was quantitated by absorption at 530 nm using an extinction coefficient of 52,000 cm^−1M^−1. Fluorescence Resonance Energy Transfer (FRET)-Peptide Approach #1

Row | Molecule | relative glycosylation rate
12 | FITC(Aha)STPVSSANMK ({FITC}-[Aha′]STPVSSANMK; reading uncertain; also: printed as FITC(Aha)STPVSSANMK) [Polypeptide 4.1] | 100%

same assay, conditions: OGT, LC/MS peak integration at 445 nm; relative to wt polypeptide 4.1

Row | Molecule | Relative rate of glycosylation
13 | FITC(Aha)STPVSFANMK ({FITC}-[Aha′]STPVSFANMK; reading uncertain; also: printed as FITC(Aha)STPVSFANMK) [Polypeptide 4.4] | 0.4
14 | FITC(Aha)STPVSSANMK ({FITC}-[Aha′]STPVSSANMK; reading uncertain; also: printed as FITC(Aha)STPVSSANMK) [Polypeptide 4.1] | 1
15 | FITC(Aha)STPRSSANMK ({FITC}-[Aha′]STPRSSANMK; reading uncertain; also: printed as FITC(Aha)STPRSSANMK) [Polypeptide 4.3] | 0
16 | FITC(Aha)STPFSSANMK ({FITC}-[Aha′]STPFSSANMK; reading uncertain; also: printed as FITC(Aha)STPFSSANMK) [Polypeptide 4.2] | 0.15
17 | FITC(Aha)STPVSRANMK ({FITC}-[Aha′]STPVSRANMK; reading uncertain; also: printed as FITC(Aha)STPVSRANMK) [Polypeptide 4.5] | 0.7
